Test results published in PubChem BioAssay (NCI).
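1) Cells in 96-well plates. 2) Compound, 48 h, 5 concentrations. 3) Linear interpolation between surrounding doses. 4) Unreached endpoint = highest concentration. Abbreviation: GI50, concentration required for 50% inhibition of growth. Definition used: TGI = concentration required for complete inhibition of growth.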

These compounds were tested on COLO 205 colon (assay: NCI anticancer screen, dose series, 48 h).
Work on `C=C1CCC(CC[C@@H]2CC[C@]3(OC2)O[C@@]2(O)CC[C@]3(C)OC2(C)C)C(C)(C)[C@H]1C/C=C1/C(=O)OC[C@@H]1O` (some centres undefined) yielded a TGI of 16.3 µM. For `C[C@]12CC[C@@H]3c4cc(OCC(F)(F)F)c(O)cc4/C(=N/O)C[C@H]3[C@@H]1CC[C@@H]2O`, the TGI was 35.3 µM. Work on `Cn1c(=O)c(Cc2ccccc2F)cc2cnc(NC3CCOCC3)nc21` yielded a GI50 greater than 25 µM and a TGI greater than 25 µM. In the case of `COc1cc(/C=C/c2ccc(OC)c(OC)c2)cc(OC)c1`, the TGI is reported as 39.7 µM. `CC1(C)[C@@H](OC(N)=O)[C@H]2O[C@H]2[C@]2(C=O)[C@H]3CC[C@]4(C)[C@@H](c5ccc(=O)oc5)[C@@H](Cl)C[C@]4(O)C3=CC[C@@H]12` gave a GI50 of 0.00731 µM and a TGI of 0.0199 µM. Compound `CCCCON(OC(=O)c1ccc2ccc3cccc4ccc1c2c34)C(C)=O` has a GI50 of 24.9 µM and a TGI of 98.9 µM. Work on `Cc1[nH]c2ccccc2c(=O)c1CC=C(Cl)Cl` yielded a GI50 greater than 100 µM and a TGI greater than 100 µM. `Clc1ccc(C=Nc2ccc3c(c2)Cc2ccccc2-3)c(Cl)c1` showed a TGI greater than 100 µM. Work on `COc1ccc(/C=C/c2cc(OC)cc(=O)o2)cc1` yielded a TGI greater than 100 µM. With `O=C(/C=C\c1ccc(NCc2ccc(C(=O)O)cc2)cc1)CCl` the GI50 was 14.2 µM and the TGI was 29.4 µM. With `COc1cccc(C#Cc2ccccc2C#CCCCCO)c1` the GI50 was 17.9 µM and the TGI was 36.2 µM. For `COc1cc2[nH]c(C(=O)c3cc(OC)c(OC)c(OC)c3)c(N)c2cc1C#CC1CC1`, the GI50 was 2.4 µM and the TGI was 8.34 µM. Compound `COc1ccc(/C=C/C(=O)C(CC2CCC2)C(=O)/C=C/c2ccc(OC)c(OC)c2)cc1OC` has a GI50 of 2.41 µM and a TGI of 5 µM. In the case of `CCn1c(-c2ccc(OC(C)=O)cc2)c(C)c2cc(OC(C)=O)ccc21`, the TGI is reported as 47.4 µM. In the case of `O=c1cccc(C#CC#CC2=CCCCC2)o1`, the GI50 is reported as 4.58 µM and the TGI is reported as 13.5 µM. `O=C1Nc2ccc(F)cc2/C1=C/c1ccc[nH]1` gave a GI50 greater than 25 µM and a TGI greater than 25 µM.

Each compound was assayed on SK-MEL-2 melanoma (assay: NCI anticancer screen, dose series, 48 h).
`Nc1ccc(-c2nc3ccc(Cc4ccc5nc(-c6ccc(N)cc6)[nH]c5c4)cc3[nH]2)cc1` gave a GI50 of 12.6 µM and a TGI of 35.4 µM. Compound `O=S(=O)(Nc1cc(Sc2cccc3cccnc23)c(O)c2ccccc12)c1ccccc1` has a GI50 of 2.48 µM and a TGI of 13.4 µM. With `CN(C)C(=O)[C@H](O)[C@H](Cc1ccccc1)NC(=O)c1cc2cc(Cl)ccc2[nH]1` the GI50 was 17.2 µM and the TGI was 37.2 µM. `CC(C)(C[C@H]1CN(S(=O)(=O)c2cccc(C(F)(F)F)c2)c2cc(-c3cc(F)cc(OC(F)F)c3)ccc2O1)C(=O)O` was tested, and the GI50 was 4.8 µM and the TGI was 18.2 µM. `C#Cc1c(I)n(C2OC(CO[Si](C)(C)C(C)(C)C)C3OC(C)(C)OC32)c(=O)[nH]c1=O` (centres undefined) gave a GI50 of 5.35 µM and a TGI of 26.1 µM. `CCSc1nc(SCC)c2cn[nH]c2n1` showed a GI50 of 61.5 µM and a TGI greater than 100 µM. `ClCC[N+]12CC[N+](CCCl)(CC1)C2` gave a TGI greater than 100 µM. In the case of `COc1cc(C(=O)c2cc(C)c3[nH]c4ccc(C)cc4c3c2C)cc(OC)c1OC`, the TGI is reported as greater than 100 µM. Work on `C=C1C(=O)OC2/C=C(\COC(C)=O)CCC(OC(C)=O)C3=CC(OC3=O)C12` (centres undefined) yielded a TGI of 14.7 µM. For `Cc1ccc2[nH]c(O)c(N=Nc3ccc(S(N)(=O)=O)cc3)c2c1`, the GI50 was greater than 25 µM and the TGI was greater than 25 µM. `C/C(N=NC(=S)N(C)C)=C1\C=CC=CN1O` showed a TGI greater than 56.2 µM. Compound `C=C1CCC(CC[C@@H]2CC[C@]3(OC2)O[C@@]2(O)CC[C@]3(C)OC2(C)C)C(C)(C)[C@H]1C/C=C1/C(=O)OC[C@@H]1O` (some centres undefined) has a TGI of 1.36 µM. Compound `C[C@]12CC[C@@H]3c4cc(OCC(F)(F)F)c(O)cc4/C(=N/O)C[C@H]3[C@@H]1CC[C@@H]2O` has a TGI of 0.852 µM. Work on `Cn1c(=O)c(Cc2ccccc2F)cc2cnc(NC3CCOCC3)nc21` yielded a GI50 greater than 25 µM and a TGI greater than 25 µM. Compound `COc1cc(/C=C/c2ccc(OC)c(OC)c2)cc(OC)c1` has a TGI greater than 100 µM. `CC1(C)[C@@H](OC(N)=O)[C@H]2O[C@H]2[C@]2(C=O)[C@H]3CC[C@]4(C)[C@@H](c5ccc(=O)oc5)[C@@H](Cl)C[C@]4(O)C3=CC[C@@H]12` gave a GI50 of 0.02 µM and a TGI of 0.0692 µM. Compound `CCCCON(OC(=O)c1ccc2ccc3cccc4ccc1c2c34)C(C)=O` has a GI50 of 23.9 µM and a TGI of 68.9 µM. `Cc1[nH]c2ccccc2c(=O)c1CC=C(Cl)Cl` gave a GI50 of 28.4 µM and a TGI greater than 100 µM. Compound `Clc1ccc(C=Nc2ccc3c(c2)Cc2ccccc2-3)c(Cl)c1` has a TGI greater than 100 µM. Work on `COc1ccc(/C=C/c2cc(OC)cc(=O)o2)cc1` yielded a TGI greater than 100 µM. In the case of `O=C(/C=C\c1ccc(NCc2ccc(C(=O)O)cc2)cc1)CCl`, the GI50 is reported as 15 µM and the TGI is reported as 30.5 µM.
